Data from patent publication US10947244B2, “Forms of a PI3K delta selective inhibitor for use in pharmaceutical formulations” (Rhizen Pharmaceuticals SA, priority 2014, dated 2021).

Assay: Particle size (PSD) analysis, Malvern Master Sizer 2000 dry powder
Type: physicochemical
Conditions: PTSA salt of TGR-1202; average of three experiments
Description: Particle size (PSD) analysis of the PTSA salts of TGR-1202 prepared in Examples 1 and 2 was performed as described below using a Malvern Master Sizer 2000 with the Scirocco 2000 dry powder system. The instrument parameters were: • Particle RI: 1.50 • Absorption index: 0.1 • Obscuration range: 1-5% • Analysis Model: General purpose • Sensitivity: Normal • Air Pressure: 2.0 Bar • Feed rate: 30% • Sample measurement Time: 6 Second • Background measurement Time: 6 Second • Number of measurement cycle: 1
Procedure: 5 g of TGR-1202 was transferred into a sample measuring cell (i.e., Scirocco 2000) and the airflow was started. Laser intensity was maintained more than 70%. Measurement was started and the vibration feed rate was increased in order to achieve the obscuration within the limits. Once the obscuration came within the limit, measurement was recorded. Analysis was performed in triplicate and the results provided are an average of three experiments.

Row | SMILES | d(0.1) | d(0.5) | d(0.9)
1 | CC(C)Oc1ccc(-c2nn([C@@H](C)c3oc4ccc(F)cc4c(=O)c3-c3cccc(F)c3)c3ncnc(N)c23)cc1F [Example 1, (S)-2-(1-(4-amino-3-(3-fluoro-4-isopropoxyphenyl)-1H-pyrazolo[3,4-d]pyrimidin-1-yl)ethyl)-6-fluoro-3-(3-fluorophenyl)-4H-chromen-4-one 4-methyl-benzenesulfonate] | 8.01 μm | 147.41 μm | 510.73 μm
2 | CC(C)Oc1ccc(-c2nn([C@@H](C)c3oc4ccc(F)cc4c(=O)c3-c3cccc(F)c3)c3ncnc(N)c23)cc1F [Example 2, (S)-2-(1-(4-amino-3-(3-fluoro-4-isopropoxyphenyl)-1H-pyrazolo[3,4-d]pyrimidin-1-yl)ethyl)-6-fluoro-3-(3-fluorophenyl)-4H-chromen-4-one 4-methyl-benzenesulfonate] | 1.07 μm | 3.98 μm | 12.18 μm
